“And” between values parts separate entries of the source, which are not always exact repeats. Equal values may be shown once. Read-outs that look alike come from different tables or passages of the source.
Legend:
Assay type in all cases: cell-based, human
[1] = tested on: A2780DDP; assay: Inhibition of cell growth (cells counted on Coulter Counter after six days); settings: for Ratio (degree of resistance or cross-resistance): A2780DDP vs A2780S EC50
Procedure: The experiment was conducted in triplicate in the manner described with respect to Table I. […]
(§1) Table VI includes EC50 data further exemplifying the invention. The data reported by Table VI was obtained by substantially the same procedure as that described with respect to Table III. In Table VI, “(C)” indicates continuous exposure, “(1 h)” and “(2 h)” indicate exposure for 1 hour and 2 hours; “HU” indicates hydroxyurea.

[2] = tested on: HCT8DDP; assay: as above
Procedure: as §1

[3] = tested on: HCT8S; assay: as above
Procedure: as §1

[4] = tested on: K562-VP16; assay: Inhibition of cell growth, Table VI
[5] = tested on: HCF7S; assay: Inhibition of cell growth, Table VI
[6] = tested on: HCF-7 DDP; assay: Inhibition of cell growth, Table VI; settings: for EC50: HCF-7 DDP
Procedure: as §1

[7] = tested on: K562-araC; assay: Inhibition of cell growth, Table VI; settings: for EC50: K562-araC
Procedure: as §1

[8] = tested on: K562S; assay: Inhibition of cell growth, Table VI
Procedure: as §1

[9] = tested on: K562-DDP; assay: Inhibition of cell growth, Table VI; settings: for EC50: K562-DDP
[10] = tested on: A2780S; assay: Inhibition of cell growth (cells counted on Coulter Counter after six days)
Procedure: The experiment was conducted in triplicate in the manner described with respect to Table I.
A2780 cells were well-plated (35 mm disnes) and 24 hours later the cells were treated with cisplatin for one hour, washed out and then treated with 6 concentrations of from 1 μM to 100 μM increased in equal increments of a nucleoside analog in saline. Cells were then washed and incubated for six days. The cells were counted on a Coulter Counter and the experiment was done in triplicate.
as §1

[11] = tested on: A2780DDP; assay: Dual labeled (14C/3H) DNA synthesis and degradation in response to cisplatin; incorporation of labelled nucleoside analogs; settings: A2780DDP
From the text: A dual labeled (^14C/^3H) experiment was designed to measure simultaneously DNA synthesis and degradation in response to cisplatin.

[12] = Homo sapiens, A2780 DDP, (C) continuous exposure, read-out: EC50
[13] = Homo sapiens, HCT8-DDP, (C) continuous exposure, read-out: EC50
[14] = Homo sapiens, (C) continuous exposure, read-out: EC50
[15] = Homo sapiens, (C) continuous exposure
[16] = Homo sapiens, A2780S, (C) continuous exposure, read-out: EC50
[17] = A2780 DDP, (C) continuous exposure, read-out: EC50
[18] = HCT8-DDP, (C) continuous exposure, read-out: EC50
[19] = (C) continuous exposure, read-out: EC50
[20] = A2780S, (C) continuous exposure, read-out: EC50
[21] = continuous exposure, proliferation during 6 days, mean + SD, read-out: EC50 A2780DDP
[22] = 0 min after cisplatin (20 μM) treatment
[23] = 45 min after cisplatin (20 μM) treatment
[24] = 90 min after cisplatin (20 μM) treatment
[25] = 180 min after cisplatin (20 μM) treatment
[26] = continuous exposure, proliferation during 6 days, mean + SD, read-out: EC50 A2780S

## Nc1nc2c(ncn2COCCO)c(=O)[nH]1 [Acyclovir]
[1]; [12]
  EC50: > 300 µM
[2]; [13]
  EC50: > 300 µM
[3]; [14]
  EC50: > 300 µM
[4]; [15]
  EC50: > 300 µM
[5]; [15]
  EC50: > 300 µM
[6]; [15]
  EC50: > 300 µM
[7]; [15]
  EC50: > 300 µM
[8]; [15]
  EC50: > 300 µM
[9]; [15]
  EC50: > 300 µM
[10]; [16]
  EC50: > 300 µM

## Nc1ncnc2c1ncn2[C@@H]1O[C@H](CO)C[C@H]1O [Cordicpin]
[1]; [17]
  EC50: 310 µM
[2]; [18]
  EC50: 95 µM
[3]; [19]
  EC50: 110 µM
[4]; (C) continuous exposure
  EC50: 150 µM
[5]; (C) continuous exposure
  EC50: 130 µM
[7]; (C) continuous exposure
  EC50: 67 µM
[7]; K562 human leukemia cells
  fold more sensitive, araC resistant vs sensitive K562 cells: 2 fold
[8]; (C) continuous exposure
  EC50: 130 µM
[9]; (C) continuous exposure
  EC50: 160 µM
[10]; [20]
  EC50: 70 µM

## Nc1nc(O)c2ncn(COC(CO)CO)c2n1 [Ganciclovir, ganciclovir]
[1]; A2780DDP vs A2780S
  fold more sensitive (lower concentration), cisplatin resistant vs sensitive A2780 cells: 3-4 fold and 3.3 fold
[1]; [12]
  EC50: 30 µM
[1]; Homo sapiens, A2780DDP, treated 24 h after plating, counted six days later, mean + SD, read-out: Ganciclovir EC50
  EC50: 30 µM
[2]; HCT8 human colon cancer cells
  fold more sensitive, cispt resistant vs sensitive HCT8 cells: 1.5 fold
[2]; [13]
  EC50: 40 µM
[2]; Homo sapiens, HCT8DDP, treated 24 h after plating, counted six days later, mean + SD, read-out: Ganciclovir EC50
  EC50: 40 µM
[3]; [14]
  EC50: 60 µM
[3]; Homo sapiens, treated 24 h after plating, counted six days later, mean + SD, read-out: Ganciclovir EC50
  EC50: 60 µM
[4]; [15]
  EC50: 250 µM
[5]; [15]
  EC50: 200 µM
[6]; [15]
  EC50: 50 µM
[6]; MCF7 human breast cancer cells
  fold more sensitive, cispt resistant vs sensitive MCF7 cells: 4 fold
[7]; [15]
  EC50: 20 µM
[8]; [15]
  EC50: 10 µM
[9]; [15]
  EC50: 295 µM
[10]; [16]
  EC50: 110 µM
[10]; Homo sapiens, A2780S, treated 24 h after plating, counted six days later, mean + SD, read-out: Ganciclovir EC50
  EC50: 110 µM

## NC(=O)NO [NU, hydroxyurea]
[1]; [17]
  EC50: 60 µM
[2]; [18]
  EC50: 100 µM
[3]; [19]
  EC50: 100 µM
[4]; (C) continuous exposure
  EC50: 40 µM
[5]; (C) continuous exposure
  EC50: 100 µM
[6]; (C) continuous exposure
  EC50: 200 µM
[7]; (C) continuous exposure
  EC50: 40 µM
[8]; (C) continuous exposure
  EC50: 40 µM
[9]; (C) continuous exposure
  EC50: 140 µM
[10]; [20]
  EC50: 75 µM

## NC(=O)c1ncn([C@@H]2O[C@H](CO)[C@@H](O)[C@H]2O)n1 [Ribovirin]
[1]; [17]
  EC50: 45 µM
[2]; [18]
  EC50: 50 µM
[3]; [19]
  EC50: 70 µM
[4]; (C) continuous exposure
  EC50: 55 µM
[5]; (C) continuous exposure
  EC50: 100 µM
[7]; (C) continuous exposure
  EC50: 42 µM
[8]; (C) continuous exposure
  EC50: 62 µM
[9]; (C) continuous exposure
  EC50: 75 µM
[10]; [20]
  EC50: 27 µM

## Nc1ncnc2c1ncn2[C@@H]1O[C@H](CO)[C@@H](O)[C@@H]1O [araA]
[1]; continuous exposure
  Ratio (degree of resistance or cross-resistance): +4.0
[1]; [21]
  EC50: 64.7 µM
[11]; [22]
  Incorporation of labelled nucleoside analog into macromolecules: 19.01
[11]; [23]
  Incorporation of labelled nucleoside analog into macromolecules: 24.21
[11]; [24]
  Incorporation of labelled nucleoside analog into macromolecules: 27.91
[11]; [25]
  Incorporation of labelled nucleoside analog into macromolecules: 32.70
[10]; [26]
  EC50: 16.2 µM

## Nc1ccn([C@@H]2O[C@H](CO)[C@@H](O)[C@@H]2O)c(=O)n1 [araC]
[1]; continuous exposure
  Ratio (degree of resistance or cross-resistance): +45.0
[1]; A2780 DDP, (2h) exposure, read-out: EC50
  EC50: 4.5 µM
[1]; [21]
  EC50: 4.5 µM
[2]; HCT8-DDP, (2h) exposure, read-out: EC50
  EC50: 79 µM
[3]; (2h) exposure, read-out: EC50
  EC50: 29 µM
[4]; (2h) exposure
  EC50: 8 µM
[5]; (2h) exposure
  EC50: 2.5 µM
[6]; (2h) exposure
  EC50: 5 µM
[7]; (2h) exposure
  EC50: 8 µM
[8]; (2h) exposure
  EC50: 0.3 µM
[9]; (2h) exposure
  EC50: 0.3 µM
[10]; A2780S, (2h) exposure, read-out: EC50
  EC50: 0.1 µM
[10]; [26]
  EC50: 0.1 µM

## Nc1ncnc2c1ncn2[C@H]1CC[C@@H](CO)O1 [ddA, 2′3′-dideoxyadenosine]
[1]; [17]
  EC50: 25 µM
[2]; [18]
  EC50: 36 µM
[3]; [19]
  EC50: 33 µM
[4]; (C) continuous exposure
  EC50: 35 µM
[5]; (C) continuous exposure
  EC50: 30 µM
[6]; (C) continuous exposure
  EC50: 30 µM
[7]; (C) continuous exposure
  EC50: 36 µM
[8]; (C) continuous exposure
  EC50: 37.5 µM
[9]; (C) continuous exposure
  EC50: 28 µM
[10]; [20]
  EC50: 10 µM

## Nc1ccn([C@H]2CC[C@@H](CO)O2)c(=O)n1 [ddC, dideoxycytidine]
[1]; continuous exposure
  Ratio (degree of resistance or cross-resistance): +2.6
[1]; Homo sapiens, 144 h, continuous exposure, proliferation during 6 days, mean + SD, read-out: EC50 A2780DDP
  EC50: 4 µM
[1]; [12]
  EC50: 4 µM
[2]; [13]
  EC50: 23 µM
[3]; [14]
  EC50: 2 µM
[4]; [15]
  EC50: 100 µM
[11]; [22]
  Incorporation of labelled nucleoside analog into macromolecules: 15.09
[11]; [23]
  Incorporation of labelled nucleoside analog into macromolecules: 36.94
[11]; [24]
  Incorporation of labelled nucleoside analog into macromolecules: 42.61
[11]; [25]
  Incorporation of labelled nucleoside analog into macromolecules: 45.93
[5]; [15]
  EC50: 2.5 µM
[6]; [15]
  EC50: > 100 µM
[7]; [15]
  EC50: > 300 µM
[8]; [15]
  EC50: 25 µM
[9]; [15]
  EC50: 5 µM
[9]; K562 human leukemia cells
  factor more sensitive, cispt resistant vs sensitive K562 cells: 5
[10]; Homo sapiens, A2780S, 144 h, continuous exposure, proliferation during 6 days, mean + SD, read-out: EC50 A2780S
  EC50: 1.5 µM
[10]; [16]
  EC50: 1.5 µM

## Nc1nc2c(ncn2[C@H]2CC[C@@H](CO)O2)c(=O)[nH]1 [ddG, 2′,3′-dideoxyquanosene]
[1]; [17]
  EC50: 110 µM
[2]; [18]
  EC50: 45 µM
[3]; [19]
  EC50: 35 µM
[4]; (C) continuous exposure
  EC50: 170 µM
[5]; (C) continuous exposure
  EC50: 210 µM
[6]; (C) continuous exposure
  EC50: 180 µM
[7]; (C) continuous exposure
  EC50: 150 µM
[8]; (C) continuous exposure
  EC50: 160 µM
[9]; (C) continuous exposure
  EC50: 190 µM
[10]; [20]
  EC50: 60 µM

## Cc1cn([C@H]2CC[C@@H](CO)O2)c(=O)[nH]c1=O [ddT, 2′,3′-dideoxythymidine]
[1]; [17]
  EC50: > 750 µM
[2]; [18]
  EC50: > 500 µM
[3]; [19]
  EC50: > 150 µM
[4]; (C) continuous exposure
  EC50: 200 µM
[5]; (C) continuous exposure
  EC50: > 500 µM
[6]; (C) continuous exposure
  EC50: > 500 µM
[7]; (C) continuous exposure
  EC50: > 400 µM
[8]; (C) continuous exposure
  EC50: > 400 µM
[9]; (C) continuous exposure
  EC50: > 400 µM
[10]; [20]
  EC50: 110 µM
